Results as given in patent US20240164385A1, “A SYNERGISTIC PLANT GROWTH STIMULANT COMPOSITION COMPRISING POTASSIUM MONO/DIFORMATE AND METAL ION COMPOUNDS TO ENHANCED METABOLIC ACTIVITIES IN PLANTS” (FERTIS INDIA PVT LTD, priority 2021, published 2024).

Assays:
Type in all cases: in vivo
paddy grain [1] = assay: Micronutrient absorption levels in paddy grains by ICP; conditions: paddy grain samples
Description: Analysis of Micronutrients in Paddy Samples by ICP (Inductive Coupled Plasma) Equipment.
• i. 1 gm of grain powder added to 60 ml of perchloric acid and Nitric acid (9:1) digest for overnight. • ii. Heat at 100° C. for 2 hours until vapors change from red to white color. • iii. The resultant solution filtered through Whatman paper and makeup to 100 ml with 1% nitric acid.

paddy grain [2] = assay: Estimation of total phenol content in paddy grain samples (Folin-Ciocalteu); conditions: absorbance at 765 nm
Description: Folin-Ciocalteu's Phenol Reagent Preparation: Take 5 ml of folin ciocalteu's phenol reagent in 50 ml of volumetric flask and then make up to the mark with distilled water 7.5% of Na2CO3 Preparation: Take 7.5 g of Na2CO3 in 100 ml of volumetric flask and then make up to mark with distilled water. Sample Procedure: • i. […] Keep it hot plate for extraction at 95° C. for 1 hr. • iii. After 1 hr filter through whatman filter paper 1 and then make up to 25 ml of volumetric flask with 70% methanol. • iv. […] Incubation for 5 mins. • vi. After 5 mins add 4 ml of 7.5% Na2CO3 mix well then keep it dark place incubation for 1 hr. • vii. Measure the absorbance at 765 nm. • viii. […] Check OD @765 nm.

paddy grain [3] = assay: Estimation of total protein content in paddy grain samples by Lowry method; conditions: 660 nm
Description: To the above solution add 5 g of Na2co3 mix well. B. 1% NAK Tartrate (Sodium Potassium Tartrate) Preparation: • Dissolve 1 g of NAK tartrate in 100 ml of volumetric flask and then make up to mark with distilled water. C. […] Dissolve 100 mg of BSA in 100 ml of volumetric flask and then make up to mark with distilled water. Take 6 test tubes then add to the above solution each of 0.1, 0.2, 0.3, 0.4, 0.5, 0.6. Sample Procedure: • i. […] Then filter through whatman filter paper 1 we take test tubes and add 1 ml of each sample. • iii. Add 4.5 ml of reagent 1 and incubate for 10 mins. • iv. After incubation add 0.5 ml of reagent 2 and incubate for 30 mins. • v. Measure the absorbance at 660 nm and plot the standard graph. The Analysis of protein estimation in grain samples is performed by Lowry method with UV Vis Spectro photo meter at 660 nm.

Compound	B (Boron) (paddy grain [1]) [ppm]	Ca (Calcium) (paddy grain [1]) [ppm]	Co (Cobalt) (paddy grain [1]) [ppm]	Cu (Copper) (paddy grain [1]) [ppm]	Fe (Iron) (paddy grain [1]) [ppm]	Mg (Magnesium) (paddy grain [1]) [ppm]	Mn (Manganese) (paddy grain [1]) [ppm]	Zn (Zinc) (paddy grain [1]) [ppm]	Phenol Content (paddy grain [2]) [ppm]	Total Protein content (paddy grain [3]) [ppm]
O=CO.O=C[O-].[K+] [Potassium diformate]	35.9	399.0	14.2	35.0	397.0	678.0	50.4	66.6	17.96	0.084
O=C[O-].[K+] [Potassium formate]	38.4	401.7	14.2	37.0	401.0	646.0	46.5	50.6	16.69	0.086
